Source: ChEMBL document CHEMBL5032517, “Synthesis of the analogs of plocabulin and their preliminary structure-activity relationship study” (Bioorg Med Chem Lett, 2021)

Legend:
A549 [1] = assay: Antiproliferative activity against human A549 cells assessed as inhibition of cell growth by secondary round CCK8 assay; assay type: functional, cell-based
HT-29 [2] = assay: Antiproliferative activity against human HT-29 cells assessed as inhibition of cell growth by secondary round CCK8 assay
HepG2 [3] = assay: Antiproliferative activity against human HepG2 cells assessed as inhibition of cell growth by secondary round CCK8 assay; assay type: functional, cell-based
A549 [4] = assay: Antiproliferative activity against human A549 cells assessed as inhibition of cell growth by first round CCK8 assay; assay type: functional, cell-based
HT-29 [5] = assay: Antiproliferative activity against human HT-29 cells assessed as inhibition of cell growth by first round CCK8 assay; assay type: functional, cell-based
HepG2 [6] = assay: Antiproliferative activity against human HepG2 cells assessed as inhibition of cell growth by first round CCK8 assay; assay type: functional, cell-based
Tubulin = assay: Inhibition of tubulin polymerization (unknown origin); assay type: protein-complex assay, Homo sapiens

Structure (SMILES) | IC50 (A549 [1]) | IC50 (HT-29 [2]) | IC50 (HepG2 [3]) | IC50 (A549 [4]) | IC50 (HT-29 [5]) | IC50 (HepG2 [6]) | IC50 (Tubulin)
C/C=C\CC(C/C=C\NC(=O)[C@@H](NC(=O)\C=C/C=C\C(C)=C\[C@H](C)[C@@H]1CC=C(OC)C(=O)O1)C(C)(C)C)OC(N)=O (some centres not stated) | < 0.2 nM | < 0.2 nM | 0.36 nM | 0.72 nM | 0.27 nM | 1.64 nM | 3.1 µM
COC1=CC[C@@H]([C@@H](C)/C=C(C)/C=C\C=C/C(=O)N[C@H](C(=O)N/C=C\CCOC(N)=O)C(C)(C)C)OC1=O |  |  |  | 2.4 nM | 1.1 nM | 5.8 nM | 
COC1=CC[C@@H]([C@@H](C)/C=C(C)/C=C\C=C/C(=O)N[C@H](C(=O)N/C=C(/C)CCOC(N)=O)C(C)(C)C)OC1=O |  |  |  |  |  |  | 16 µM
CC(=O)O[C@H]1C(=O)[C@@]2(C)[C@H]([C@H](OC(=O)c3ccccc3)[C@]3(O)C[C@H](OC(=O)[C@H](O)[C@@H](NC(=O)c4ccccc4)c4ccccc4)C(C)=C1C3(C)C)[C@]1(OC(C)=O)CO[C@@H]1C[C@@H]2O [PACLITAXEL] |  |  | 10.1 nM |  |  |  | 
